In PubChem BioAssay AID2060620 (Molecular Pharmacology Branch, DTP, NCI, 2025):
pIC50: −log10 of the molar value.

Tested on: 328373-195-R-J1-PDC complex spheroids, viability % test/control
Test: Anticancer human tumor 328373-195-R-J1-PDC patient-derived head and neck squamous carcinoma cell line growth inhibition [CLK]
Details: for pIC50: curve of first compound; for viability, T/C: stronger effect = lower value
From the text: A high-throughput screen of multi-cell type tumor spheroids was designed to identify active combinations of […] and targeted small molecules. Complex spheroids include a stromal component modeled by human endothelial cells (HUVEC) and fibroblasts modeled by human mesenchymal stem cells (MSCs). The concentration ranges selected for each drug and investigational agent were based upon clinically achievable concentrations if the clinical Cmax of the agent was known.
Compounds. The drugs and investigational agents: cirtuvivint (SM08502; NSC835563), CC-671 (NSC850746), vemurafenib (NSC761431), tapotoclax (NSC804041), sotorasib (NSC818433), adagrasib (NSC831453), MRTX-1133 (NSC836407), BAY2416964 (NSC825713), copanlisib (NSC816437), inavolisib (NSC800729), abemaciclib (NSC768073), osimertinib (NSC779217), entinostat (NSC756642), eltanexor (KPT-8602, NSC794443), venetoclax (NSC766270), ceralasertib (NSC777638), bortezomib (NSC756655), olaparib (NSC753686), talazoparib (NSC767125), alisertib (NSC759677), peposertib (NSC802822), gemcitabine (NSC613327), 5-fluorouracil (NSC19893), SN-38 (NSC673596), oxaliplatin (NSC266046), paclitaxel (NSC125973), and doxorubicin (NSC123127), were obtained from the National Cancer Institute (NCI) Developmental Therapeutics Program Chemical Repository. The FDA-approved anticancer drug set is available from the Developmental Therapeutics Program at https://dtp.cancer.gov/organization/dscb/obtaining/available plates.htm. […] The stock solutions were prepared in dimethyl sulfoxide (DMSO, Sigma-Aldrich, St. Louis, MO, cat. D2650), except for the platinum complexes which were prepared in saline (Quality Biological, Gaithersburg, MD, cat. 114-055-101), at 800-fold the tested concentration and stored at -70 degrees C prior to their use. All drugs and investigational agents were tested over a range starting from a high concentration at or near the clinical Cmax and decreasing in half-log increments. If the clinical Cmax for an agent had not been determined, the highest concentration tested was 10 microM.
Cell Culture. All cells were maintained in an incubator at 37 degrees C and 5% CO2 with 95% humidity. The PDC lines were cultured according to standard operating procedures established by the NCI PDMR. Briefly, all PDCs were thawed and cultured in Matrigel-coated flasks prepared with a working solution of 1X Ham's F-12 nutrient mix, without supplementation (Invitrogen, Waltham, MA, cat. 11765054), 100 U/mL penicillin-streptomycin (Invitrogen, cat. 15140122), and 2.5% Matrigel (Corning Inc., Corning, NY, cat. 354248) for the first three passages. The 947758-054-R-J2-PDC line was cultured in 6B/Colon 1A media, which includes advanced DMEM/F-12 (Thermo Fisher Scientific, cat. 12634028), 10 mM HEPES (Thermo Fisher Scientific, cat. 15630080), 1X GlutaMAX supplement (Thermo Fisher Scientific, cat. 35050061), 0.1 mg/mL primocin (InvivoGen, cat. ant-pm-2), 10% defined fetal bovine serum, heat inactivated (HyClone Laboratories Inc., cat. SH30070.03HI), 1.25 mM N-Acetyl-L-cysteine (Sigma-Aldrich, cat. A9165), 10 mM nicotinamide (Sigma-Aldrich, cat. N0636), 1X B-27 supplement (Thermo Fisher Scientific, cat. 17504044), 1X N-2 supplement (Thermo Fisher Scientific, cat. 17502048), and 10 microM Y-27632 dihydrochloride (Tocris Bioscience, cat. 1254). The 876862-298-R-J1-PDC was cultured in 6E media, which includes all 6B/Colon 1A media components plus 50% L-WRN conditioned media (ATCC, cat. CRL-3276), 50 ng/mL recombinant human EGF recombinant protein (hEGF; Thermo Fisher Scientific, cat. PHG0311), 10 ng/mL recombinant human fibroblast growth factor 10 (hGFG-10; PeproTech, cat. 100-26), 1 ng/mL recombinant human fibroblast growth factor 2 (hFGF-2; PeproTech, cat. 100-18B), and 1 µM prostaglandin E2 (PGE2; Tocris, cat. 2296). The 227483-062-R1-J1-PDC line was cultured in Panc media, containing all 6E components except hFGF-2, with the addition of 500 nM SB-431542 (Selleckchem, cat. S1067) and 10 nM gastrin (Tocris, cat. 3006). […]
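Further: spheroids exposed to the agents for 7 days.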

C#Cc1c(F)ccc2cc(O)cc(-c3ncc4c(N5CC6CCC(C5)N6)nc(OCC56CCCN5CC(F)C6)nc4c3F)c12 (configuration not stated) + CN1CCN(c2cc(C(=O)Nc3cc4cc(-c5cnn(C)c5)ccc4cn3)ccn2)CC1
pIC50 (second compound 0.0316 µM): < 5.00 | pIC50 (second compound 0.1 µM): < 5.00 | pIC50 (second compound 0.316 µM): > 7.50 | pIC50 (second compound 1 µM): > 7.50 | pIC50 (second compound 3.16 µM): > 7.50 | pIC50 (second compound 10 µM): > 7.50 | viability, T/C (second compound 0.0316 µM, first compound 0.0316 µM): 92.8% | viability, T/C (second compound 0.0316 µM, first compound 0.1 µM): 88% | viability, T/C (second compound 0.0316 µM, first compound 0.316 µM): 109% | viability, T/C (second compound 0.0316 µM, first compound 1 µM): 93.9% | viability, T/C (second compound 0.0316 µM, first compound 3.16 µM): 103% | viability, T/C (second compound 0.0316 µM, first compound 10 µM): 81.5% | viability, T/C (second compound 0.1 µM, first compound 0.0316 µM): 80.8% | viability, T/C (second compound 0.1 µM, first compound 0.1 µM): 85.2% | viability, T/C (second compound 0.1 µM, first compound 0.316 µM): 80.1% | viability, T/C (second compound 0.1 µM, first compound 1 µM): 83.2% | viability, T/C (second compound 0.1 µM, first compound 3.16 µM): 88.8% | viability, T/C (second compound 0.1 µM, first compound 10 µM): 62.4% | viability, T/C (second compound 0.316 µM, first compound 0.0316 µM): 34% | viability, T/C (second compound 0.316 µM, first compound 0.1 µM): 34.8% | viability, T/C (second compound 0.316 µM, first compound 0.316 µM): 30.9% | viability, T/C (second compound 0.316 µM, first compound 1 µM): 39.2% | viability, T/C (second compound 0.316 µM, first compound 3.16 µM): 32.8% | viability, T/C (second compound 0.316 µM, first compound 10 µM): 16.9% | viability, T/C (second compound 1 µM, first compound 0.0316 µM): 0.24% | viability, T/C (second compound 1 µM, first compound 0.1 µM): 0.32% | viability, T/C (second compound 1 µM, first compound 0.316 µM): 1.75% | viability, T/C (second compound 1 µM, first compound 1 µM): 0.29% | viability, T/C (second compound 1 µM, first compound 3.16 µM): 0.2% | viability, T/C (second compound 1 µM, first compound 10 µM): 2.89% | viability, T/C (second compound 3.16 µM, first compound 0.0316 µM): 0.63% | viability, T/C (second compound 3.16 µM, first compound 0.1 µM): 2.27% | viability, T/C (second compound 3.16 µM, first compound 0.316 µM): 3.6% | viability, T/C (second compound 3.16 µM, first compound 1 µM): 0.18% | viability, T/C (second compound 3.16 µM, first compound 3.16 µM): 0.13% | viability, T/C (second compound 3.16 µM, first compound 10 µM): 0.34% | viability, T/C (second compound 10 µM, first compound 0.0316 µM): 1.89% | viability, T/C (second compound 10 µM, first compound 0.1 µM): 0.19% | viability, T/C (second compound 10 µM, first compound 0.316 µM): 0.24% | viability, T/C (second compound 10 µM, first compound 1 µM): 0.19% | viability, T/C (second compound 10 µM, first compound 3.16 µM): 0.19% | viability, T/C (second compound 10 µM, first compound 10 µM): 1.27%
